# Experimental data taken from patent US20240010684A1, “MASP INHIBITORY COMPOUNDS AND USES THEREOF” (BAYER AKTIENGESELLSCHAFT, priority 2020, published 2024).
# *1 amine or outer side, *2 acyl side, *3 side chain or, on linkers, in order; H or OH if unused. Where a SMILES comes first, the peptide text is derived from it. Bridges are numbered along the chain shown (N, C = ends). [ ]: non-standard residue; d: D form. Oic = O=C(O)[C@@H]1C[C@@H]2CCCC[C@@H]2N1; Adipoyl = O=C(CCCCC(=O)[*:2])[*:1]; tBuAla = CC(C)(C)C[C@H](N)C(=O)O; Pen = CC(C)(S)[C@H](N)C(=O)O; Dap = NC[C@H](N)C(=O)O; Ahx = NCCCCCC(=O)O; Sar = CNCC(=O)O
# Key:
# [1] = biological target: human MASP2 (Homo sapiens (Human), UniProt O00187); test: Biochemical human MASP2 assay (FRET substrate); details: Average IC50; recombinant human MASP2; read-out: human MASP2 IC50
# human MASP2, sequence (O00187 other isoform, or with tags, fused parts or gaps): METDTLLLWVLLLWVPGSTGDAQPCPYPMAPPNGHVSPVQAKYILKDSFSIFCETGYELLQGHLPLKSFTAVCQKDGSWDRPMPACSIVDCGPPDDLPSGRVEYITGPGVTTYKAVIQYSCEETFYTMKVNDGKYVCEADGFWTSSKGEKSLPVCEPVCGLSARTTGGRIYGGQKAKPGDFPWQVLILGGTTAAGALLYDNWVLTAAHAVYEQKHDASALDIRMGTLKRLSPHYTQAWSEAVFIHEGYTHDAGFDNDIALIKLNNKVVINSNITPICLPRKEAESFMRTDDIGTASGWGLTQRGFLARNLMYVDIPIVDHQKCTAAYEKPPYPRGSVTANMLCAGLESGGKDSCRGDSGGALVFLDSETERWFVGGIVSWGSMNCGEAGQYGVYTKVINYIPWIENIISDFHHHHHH
# Outline: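 IC50 came from % inhibition across compound concentrations, with fluorescence (ex 340 nm, em 490 nm) read after 60-120 min at 32 C. Substrate was a DABCYL FRET peptide, added as a 60 μM solution, cleaved by HEK293-expressed, Ni-NTA-purified mature recombinant human MASP2.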
# [2] = biological target: rat MASP1 (Rattus norvegicus (Rat), UniProt Q8CHN8); test: Biochemical rat MASP1 assay (FRET substrate); details: Average IC50; recombinant rat MASP1; read-out: rat MASP1 IC50
# rat MASP1, sequence (Q8CHN8 other isoform, or with tags, fused parts or gaps): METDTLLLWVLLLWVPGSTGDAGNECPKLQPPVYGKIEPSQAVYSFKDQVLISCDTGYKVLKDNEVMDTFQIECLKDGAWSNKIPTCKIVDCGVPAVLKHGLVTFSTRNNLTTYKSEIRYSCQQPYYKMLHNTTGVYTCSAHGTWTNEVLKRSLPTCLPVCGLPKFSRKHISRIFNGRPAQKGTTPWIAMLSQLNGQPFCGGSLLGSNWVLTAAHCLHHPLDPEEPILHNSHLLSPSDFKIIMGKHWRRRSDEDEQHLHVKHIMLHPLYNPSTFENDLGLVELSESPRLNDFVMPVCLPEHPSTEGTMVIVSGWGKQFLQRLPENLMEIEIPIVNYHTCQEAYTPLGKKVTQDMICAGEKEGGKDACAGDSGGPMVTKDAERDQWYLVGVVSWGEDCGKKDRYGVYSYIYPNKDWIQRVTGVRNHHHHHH
# Text: A truncated cDNA sequence of rat MASP1encoding the fragment corresponding to the amino acids 302-704 with a C-terminal His Tag and N-terminal Ig-kappa secretion signal (SEQ ID No: 4) was subcloned into the mammalian expression vector pcDNA3.1 (Invitrogen).
# (§1) The MASP1 or MASP2 expression vectors were transfected into the HEK293 (ATCC No. CRL-1573) cell line using Lipofectamine LTX® Reagent (Thermo-Fischer), as described by the manufacturer. The mature form of the recombinant rat MASP1 and MASP2 proteases were secreted into the culture medium. The MASP1 and MASP2 proteins were purified from the conditioned media by affinity chromatography on Ni-NTA Superflow resin (Qiagen) as described by the manufacturer.
# 4.2 Biochemical Rat MASP1 Assay.
# Recombinant rat MASP1 enzyme produced in the HEK 293 cells was diluted in the reaction buffer (50 mM HEPES pH 8,0; 100 mM NaCl; 0,01% CHAPS; 0.5 mM Gluthathione) to the concentration of 4 nM and 25 μl was transferred into each single well of 384-well white microtiter plate (Greiner Bio One 781075). 1 μl of the inhibitor compound solution (dissolved in DMSO, at the corresponding concentration) or pure DMSO as a control was added to the same wells. The enzymatic reaction was initiated by addition of 25 μl of 40 μM solution of the FRET substrate Dabcyl-[…]-Glu(Edans)-NH2; (Dabcyl-4-((4-(dimethylamino)phenyl)azo)benzoic acid; Edans-5-[(2-Aminoethyl) amino]naphthalene-1-sulfonyl; custom synthesis by Jerini Peptide Technologies, Berlin) in the reaction buffer. The microtiter plate was incubated for 60-120 min at the temperature of 32 C. The increase of fluorescence intensity was measured in appropriate fluorescence plate reader (e.g. TECAN Ultra) using excitation wavelength of 340 nm and emission wavelength of 490 nm. IC50 values were calculated from percentage of inhibition of rat […] activity as a function of test compound concentration.
# [3] = biological target: rat MASP2 (Rattus norvegicus (Rat), UniProt Q9JJS8); test: Biochemical rat MASP2 assay (FRET substrate); details: Average IC50; recombinant rat MASP2; read-out: rat MASP2 IC50
# rat MASP2, sequence (Q9JJS8 other isoform, or with tags, fused parts or gaps): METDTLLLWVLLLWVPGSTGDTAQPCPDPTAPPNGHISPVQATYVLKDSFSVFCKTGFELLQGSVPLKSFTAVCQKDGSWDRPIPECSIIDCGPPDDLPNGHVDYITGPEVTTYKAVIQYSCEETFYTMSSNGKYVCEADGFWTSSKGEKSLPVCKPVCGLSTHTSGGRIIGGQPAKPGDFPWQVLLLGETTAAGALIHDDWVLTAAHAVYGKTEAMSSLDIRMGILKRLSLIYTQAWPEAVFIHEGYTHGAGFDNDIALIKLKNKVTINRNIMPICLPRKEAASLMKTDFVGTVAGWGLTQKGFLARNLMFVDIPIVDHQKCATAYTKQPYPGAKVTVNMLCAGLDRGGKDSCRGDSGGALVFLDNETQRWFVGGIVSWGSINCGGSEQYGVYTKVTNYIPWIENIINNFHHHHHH
# Text: as §1, with “The mature form of the recombinant rat MASP1 and MASP2 proteases were secreted into the culture medium.” left out, “M[…]” for “MASP2 proteins”
# [4] = biological target: human MASP1 (Homo sapiens (Human), UniProt P48740); test: Biochemical human MASP1 assay (FRET substrate); details: Average IC50; recombinant human MASP1; read-out: human MASP1 IC50
# human MASP1, sequence (P48740 other isoform, or with tags, fused parts or gaps): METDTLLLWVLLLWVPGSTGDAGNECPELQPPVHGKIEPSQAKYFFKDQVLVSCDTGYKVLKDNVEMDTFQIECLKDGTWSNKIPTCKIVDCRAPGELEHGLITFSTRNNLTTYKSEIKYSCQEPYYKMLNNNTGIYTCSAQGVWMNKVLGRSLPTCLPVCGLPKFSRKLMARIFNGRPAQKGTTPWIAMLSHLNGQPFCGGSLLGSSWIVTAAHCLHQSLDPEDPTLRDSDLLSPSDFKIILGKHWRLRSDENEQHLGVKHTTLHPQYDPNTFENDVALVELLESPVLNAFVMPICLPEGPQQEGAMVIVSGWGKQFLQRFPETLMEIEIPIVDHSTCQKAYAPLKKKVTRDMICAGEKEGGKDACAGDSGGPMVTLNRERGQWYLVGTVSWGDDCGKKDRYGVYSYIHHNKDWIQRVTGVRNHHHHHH
# Outline: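 IC50 derived from % inhibition versus compound concentration, with fluorescence increase read at 320/420 nm after 60-120 min at 32 C. Enzyme: HEK293-secreted, His-tagged human MASP1 fragment 297-699 at 20 nM in HEPES pH 8,0 buffer with NaCl, CHAPS, glutathione; substrate ABZ-peptide-Lys(Dnp)-NH2 added as 20 μM solution.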
# [5] = system: Human C3-DEPOSITION SERUM; test: C3 deposition assay, human serum on mannan-coated plates; format: biochemical; details: Average IC50, read-out: Human C3-DEPOSITION SERUM IC50
# Outline: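 Plates coated overnight at 4° C with S. cerevisiae mannan (10 μg/mL, pH 9.6), blocked with 1% BSA in TBS 2 h at 37° C; washes in TBS/0.05% Tween 20/5 mM CaCl2. Antibodies diluted in wash buffer with 0.5% BSA. Colorimetric read-out at 450 nm.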
Structure (SMILES),IC50 [1],IC50 [2],IC50 [3],IC50 [4],IC50 [5]
CC[C@H](C)[C@@H]1NC(=O)CNC(=O)[C@@H](N)CCC(=O)NC[C@@H](C(N)=O)NC(=O)[C@H](CC(=O)O)NC(=O)[C@@H]2CCCN2C(=O)[C@H]([C@@H](C)CC)NC(=O)[C@H]2NC(=O)[C@H]([C@@H](C)CC)NC(=O)[C@@H]3C[C@@H]4CCCC[C@@H]4N3C(=O)[C@@H]3CCCN3C(=O)[C@H](CC(C)C)NC(=O)[C@H](CO)NC(=O)[C@H](CCCNC(=N)N)NC(=O)[C@H](CO)NC(=O)[C@H](CSSC2(C)C)NC1=O [Example 93] (H-EGICSRSLP[Oic]I[Pen]IPD[Dap]-NH2; lactam 1-16; disulfide 4-12),45 nM,410 nM,68 nM,35 nM,274 nM
CC[C@H](C)[C@@H]1NC(=O)[C@H](CN)NC(=O)[C@H](CN)NC(=O)[C@@H]2CCCN2C(=O)[C@H]([C@@H](C)CC)NC(=O)[C@H]2NC(=O)[C@H]([C@@H](C)CC)NC(=O)[C@@H]3C[C@@H]4CCCC[C@@H]4N3C(=O)[C@@H]3CCCN3C(=O)[C@H](CC(C)C)NC(=O)[C@H](CO)NC(=O)[C@H](CCCNC(=N)N)NC(=O)[C@H](CO)NC(=O)[C@H](CSSC2(C)C)NC1=O [Example 89],91 nM,290 nM,64 nM,5.7 nM,18.5 nM
CC[C@H](C)[C@@H]1NC(=O)CCCNC(=O)[C@H](CC(=O)O)NC(=O)[C@@H]2CCCN2C(=O)[C@H]([C@@H](C)CC)NC(=O)[C@H]2NC(=O)[C@H]([C@@H](C)CC)NC(=O)[C@@H]3CCCN3C(=O)[C@@H]3CCCN3C(=O)[C@H](CC(C)(C)C)NC(=O)[C@H](CO)NC(=O)[C@H](CCCNC(=N)N)NC(=O)[C@H](CO)NC(=O)[C@H](CSSC2(C)C)NC1=O [Example 35],17 nM,63 nM,24 nM,4.1 nM,3.3 nM
CC[C@H](C)[C@@H]1NC(=O)CNC(=O)CNC(=O)[C@H](C)NC(=O)[C@@H](CC(=O)O)NC(=O)[C@@H]2CCCN2C(=O)[C@H]([C@@H](C)CC)NC(=O)[C@H]2NC(=O)[C@H]([C@@H](C)CC)NC(=O)[C@@H]3CCCN3C(=O)[C@@H]3CCCN3C(=O)[C@H](CC(C)(C)C)NC(=O)[C@H](CO)NC(=O)[C@H](CCCNC(=N)N)NC(=O)[C@H](CO)NC(=O)[C@H](CSSC2(C)C)NC1=O [Example 39] (cyclo(AGGICSRS[tBuAla]PPI[Pen]IP[dD]); disulfide 5-13),75 nM,44 nM,8 nM,6 nM,33.6 nM
"CC[C@H](C)[C@@H]1NC(=O)[C@@H]2CCCN2C(=O)[C@@H]2CCCN2C(=O)[C@H](CC(C)(C)C)NC(=O)[C@H](CO)NC(=O)[C@H](CCCNC(=N)N)NC(=O)[C@H](CO)NC(=O)[C@@H]2CSSC(C)(C)[C@H](NC1=O)C(=O)N[C@@H]([C@@H](C)CC)C(=O)N1CCC[C@H]1C(=O)N1CCC[C@H]1C(=O)N[C@@H]([C@@H](C)CC)C(=O)N2 [Example 58, N-{3-[(6S,9S,12S,15S,18R,21S,23aS,28aS,34S,37R,40S,42aS,47aS)-21,34,40-tri[(2S)-butan-2-yl]-6-(2,2-dimethylpropyl)-9,15-bis(hydroxymethyl)-48,48-dimethyl-5,8,11,14,17,20,23,28,33,36,39,42,47-tridecaoxotetratetracontahydro-1H,5H,28H-18,37-(methanodithiomethano)tetrapyrrolo[1,2-a:1′,2′-d:1″,2″-p:1′″,2′″-s][1,4,7,10,13,16,19,22,25,28,31,34,37]tridecaazacyclononatriacontin-12-yl]propyl}guanidine] (cyclo(CSRS[tBuAla]PPI[Pen]IPPI); disulfide 1-9)",650 nM,110 nM,46 nM,9 nM,81.7 nM

# These reach a lower IC50 [1]. Values come first.
IC50 [1],IC50 [2],IC50 [3],IC50 [4],IC50 [5],Structure (SMILES)
9.3 nM,79 nM,11.6 nM,7.9 nM,23.7 nM,"CC[C@H](C)[C@@H]1NC(=O)CCCCCNC(=O)[C@H]([C@@H](C)CC)NC(=O)[C@H]2NC(=O)[C@H]([C@@H](C)CC)NC(=O)[C@@H]3CCCN3C(=O)[C@@H]3CCCN3C(=O)[C@H](CC(C)(C)C)NC(=O)[C@H](CO)NC(=O)[C@H](CCCNC(=N)N)NC(=O)[C@H](CO)NC(=O)[C@H](CSSC2(C)C)NC1=O [Example 52, N-{3-[(5aS,11S,14S,17S,20S,23R,26S,36S,39R,42S,44aS)-26,36,42-tri[(2S)-butan-2-yl]-11-(2,2-dimethylpropyl)-14,20-bis(hydroxymethyl)-45,45-dimethyl-5,10,13,16,19,22,25,28,35,38,41,44-dodecaoxodotetracontahydro-1H,5H-23,39-(methanodithiomethano)dipyrrolo[2,1-1:2′,1′-o][1,4,7,10,13,16,19,22,25,28,31,34]dodecaazacyclotetracontin-17-yl]propyl}guanidine] (cyclo([Ahx]ICSRS[tBuAla]PPI[Pen]I); disulfide 3-11)"
12 nM,157 nM,13 nM,9.4 nM,17.8 nM,"CC[C@H](C)[C@@H]1NC(=O)CN(C)C(=O)CCCCCNC(=O)[C@H]([C@@H](C)CC)NC(=O)[C@H]2NC(=O)[C@H]([C@@H](C)CC)NC(=O)[C@@H]3CCCN3C(=O)[C@@H]3CCCN3C(=O)[C@H](CC(C)(C)C)NC(=O)[C@H](CO)NC(=O)[C@H](CCCNC(=N)N)NC(=O)[C@H](CO)NC(=O)[C@H](CSSC2(C)C)NC1=O [Example 64, N-{3-[(5aS,11S,14S,17S,20S,23R,26S,39S,42R,45S,47aS)-26,39,45-tri[(2S)-butan-2-yl]-11-(2,2-dimethylpropyl)-14,20-bis(hydroxymethyl)-30,48,48-trimethyl-5,10,13,16,19,22,25,28,31,38,41,44,47-tridecaoxohexatetracontahydro-5H-23,42-(methanodithiomethano)dipyrrolo[2,1-1:2′,1′-o][1,4,7,10,13,16,19,22,25,28,31,34,37]tridecaazacyclotritetracontin-17-yl]propyl}guanidine] (cyclo([Ahx][Sar]ICSRS[tBuAla]PPI[Pen]I); disulfide 4-12)"
5.4 nM,330 nM,13 nM,58 nM,20.5 nM,CC[C@H](C)[C@@H]1NC(=O)CCCCC(=O)NC[C@@H](C(N)=O)NC(=O)[C@H](CC(=O)O)NC(=O)[C@@H]2CCCN2C(=O)[C@H]([C@@H](C)CC)NC(=O)[C@H]2NC(=O)[C@H]([C@@H](C)CC)NC(=O)[C@@H]3CCCN3C(=O)[C@@H]3CCCN3C(=O)[C@H](CC(C)(C)C)NC(=O)[C@H](CO)NC(=O)[C@H](CCCNC(=N)N)NC(=O)[C@H](CO)NC(=O)[C@H](CSSC2(C)C)NC1=O [Example 60] (ICSRS[tBuAla]PPI[Pen]IPD[Dap]-NH2; disulfide 2-10; linker N-14 via Adipoyl)
